Experimental data from ChEMBL document CHEMBL2331105, “Selective Cyp11B1 Inhibitors for the Treatment of Cortisol Dependent Diseases” (ACS Med Chem Lett, 2013).

Columns and labels:
[1] = target: T1, Cytochrome P450 11B2, mitochondrial (Homo sapiens, UniProt P19099); experiment: Inhibition of human CYP11B2 expressed in hamster V79MZ cells using [1,2-3H]11-deoxycorticosterone as substrate preincubated for 60 mins prior to substrate addition measured after 50 mins by HPLC analysis; assay type: cell-based
T1 sequence (P19099 whole entry): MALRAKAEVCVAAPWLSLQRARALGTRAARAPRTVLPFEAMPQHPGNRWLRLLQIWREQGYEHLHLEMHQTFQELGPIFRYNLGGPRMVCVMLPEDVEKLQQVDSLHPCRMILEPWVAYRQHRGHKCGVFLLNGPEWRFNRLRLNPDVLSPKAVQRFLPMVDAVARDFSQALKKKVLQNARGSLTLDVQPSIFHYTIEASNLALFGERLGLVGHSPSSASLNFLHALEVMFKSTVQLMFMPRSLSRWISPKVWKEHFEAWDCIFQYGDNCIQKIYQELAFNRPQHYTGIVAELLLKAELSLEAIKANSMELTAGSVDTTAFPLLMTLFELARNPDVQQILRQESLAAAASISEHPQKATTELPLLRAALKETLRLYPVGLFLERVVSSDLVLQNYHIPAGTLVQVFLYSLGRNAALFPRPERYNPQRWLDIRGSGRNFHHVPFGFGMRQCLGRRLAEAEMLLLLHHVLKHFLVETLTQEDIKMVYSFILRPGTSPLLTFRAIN

[2] = target: T2, Cytochrome P450 11B1, mitochondrial (Homo sapiens, UniProt P15538); experiment: Inhibition of human CYP11B1 expressed in hamster V79MZ cells using [1,2-3H]11-deoxycorticosterone as substrate preincubated for 60 mins prior to substrate addition measured after 25 mins by HPLC analysis; assay type: cell-based
T2 sequence (P15538 whole entry): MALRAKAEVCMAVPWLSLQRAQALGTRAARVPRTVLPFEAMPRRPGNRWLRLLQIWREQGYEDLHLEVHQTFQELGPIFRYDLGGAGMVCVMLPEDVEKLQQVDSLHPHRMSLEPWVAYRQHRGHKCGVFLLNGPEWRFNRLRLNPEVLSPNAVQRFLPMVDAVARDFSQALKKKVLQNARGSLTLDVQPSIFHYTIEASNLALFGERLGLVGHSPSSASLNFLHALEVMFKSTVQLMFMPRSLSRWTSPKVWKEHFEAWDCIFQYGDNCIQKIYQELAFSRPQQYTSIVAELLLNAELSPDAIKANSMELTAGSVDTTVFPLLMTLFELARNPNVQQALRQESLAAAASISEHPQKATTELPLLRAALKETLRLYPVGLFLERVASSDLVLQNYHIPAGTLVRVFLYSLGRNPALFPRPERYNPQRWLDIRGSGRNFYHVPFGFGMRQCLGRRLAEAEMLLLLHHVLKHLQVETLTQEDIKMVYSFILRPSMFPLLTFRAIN

Fc1ccc(Cn2ccnc2)cn1
IC50 [1]: 1.74 µM | IC50 [2]: 0.072 µM
